# Test results as given in patent US20230265524A1, “IMMUNOGENIC RETROELEMENTS AND THEIR USE IN CANCER THERAPY” (UNIVERSITY HEALTH NETWORK, priority 2020, published 2023).
# Assays:
# [1] = system: interferon stimulated genes (ISG15, DDX58 and IRF7); assay: interferon response / ISG expression by RNA-seq GSEA and qRT-PCR in patient-derived CRC cells; type: cell-based, human; settings: transfection in wild-type and ADAR1-depleted cells, across time-points
# Excerpt: H, Geneset Enrichment Analysis showing an enrichment of the geneset ‘Hallmark_Interferon_Alpha_Response’ in ADAR1^KD 5-AZA-treated cells compared to ADAR1^WT 5-AZA-CdR treated cells.
# I, Interferon-responsive geneset enrichment score in mock-treated ADAR1^WT, 5-AZA-CdR-treated ADAR1^WT, mock-treated ADAR1^KD, and 5-AZA-CdR-treated ADAR1^KD conditions. Samples were collected 5, 14, and 24 days post-treatment.
# B, Kinetics of interferon stimulated genes (ISG15, DDX58 and IRF7) relative expression in ADAR1^WT (Black) and ADAR1^KD (Gray) patient-derived colorectal cancer cells (CRCs) treated with 5-AZA-CdR analyzed by qRT-PCR. Data are mean±s.e.m. (n=3 from three independent experiments). *P<0.05, **P<0.01, ****P<0.0001, Sidak-corrected two-way ANOVA.
# C, Interferon-responsive gene expression in ADAR1^WT mock-treated (MT), 5-AZA-CdR treated, ADAR1^KD NT and ADAR1^KD p(I:C) transfected samples collected 5 days, 14 days and 24 days post-treatment, measured by RNA-seq.
# D, Kinetics of interferon stimulated genes (ISG15, DDX58 and IRF7) relative expression in ADAR1^WT (Black) and ADAR1^KD (Gray) patient-derived CRCs transfected with p(I:C), analyzed by qRT-PCR. Data are mean±s.e.m. **P<0.01, ****P<0.0001, Sidak-corrected two-way ANOVA.
# F, Interferon stimulated genes (ISG15, DDX58 and IRF7) relative expression in CTRL (LUC) (Black) and ADAR1^p150CE (Gray) patient-derived CRCs treated with 5-AZA-CdR, analyzed by qRT-PCR. Data are mean±s.e.m. **P<0.01, ***P<0.001, Sidak-corrected two-way ANOVA.
# G, IFN enrichment score in CTRL(LUC) Mock-treated, 5-AZA-CdR treated, ADAR1-p150 overexpressing NT and ADAR1-p150 overexpressing 5-AZA-CdR treated samples collected 5 days post-treatment and measured by RNA-seq.
# Based on these findings, we hypothesized that ADAR1 depletion would synergize with the viral mimicry response induced by DNMTi treatment. To assess how ADAR1 depletion affects 5-AZA-CdR treated samples, we performed RNA-seq analyses in patient-derived CRC cells. […] As a molecular read-out of dsRNA pattern recognition activation, we measured MAVS aggregation in the mitochondrial fraction of cell lysates^34. […] Taken together, our findings establish that ADAR1 acts as a negative feedback loop, restricting the viral mimicry response induced by DNMTi treatment in cancer cells.
# [2] = system: ADAR1; assay: qPCR analysis of ADAR1 mRNA level and isoforms; type: cell-based, human; settings: CRC cells transiently transfected, 100 ng/ml
# Procedure: C, qPCR analysis of total ADAR1 mRNA level after treatment with 5-AZA-CdR (300 nM, for 5 days) or transfection with 100 ng ml-1 poly(I:C) over a course of 24 days. Cells were washed out at day 5 and seeded in drug-free medium. Data are mean±s.e.m.****P<0.0001, Sidak-corrected two-way ANOVA.
# A, ADAR1 isoforms (p110 and p150) relative expression analysed by qPCR. LACZ denotes ADAR1WT; PIC denotes 100 ng/ml poly (I:C) for 5 days; AZA denotes 300 nM 5-AZA-CdR for 5 days). Data are mean±s.e.m. (n=3 from three independent experiments). ***P<0.001, ****P<0.0001, Tukey-corrected two-way ANOVA.
# To test this hypothesis, we first determined if ADAR1 depletion affects dsRNA formation by IR-Alus in untreated patient-derived CRCs. We generated ADAR1 knock-down CRCs using two different hairpin RNAs (ADAR1^KDA/B) and confirmed depletion of both the constitutively expressed (p110) and interferon-inducible (p150) ADAR1 isoforms (FIG. 8A). […] To determine if MDA5 ligands also increase upon ADAR1 depletion, we performed the MDA5 protection assay followed by RNA-Seq, as above. […] Again, these immunogenic Alus were primarily IR-Alu pairs unidirectionally transcribed in either the sense (+/+) or antisense (−/−) direction and induced upon ADAR1 depletion (FIG. 9C-J).
# Next, we tested whether epigenetic therapy can induce and activate ADAR1 editing activity.
substance,measurement,setting,value
Poly(I:C),activation of ISGs,[1],comparable activation of ISGs across time-points
same,interferon-inducible isoform of ADAR1 (p150) expression,[2],acute up-regulation
